# Literature values in patent US20140256766A1, “TRANSMUCOSAL DRUG DELIVERY SYSTEM” (priority 2013, published 2014).
# Columns and labels:
# [1] = smoking a cigarette (WO 03/055486 A1)
# [2] = pH 6.8
smiles,measurement,setting,value
CN1CCCC1c1cccnc1 (centres unmarked) [nicotine],time to peak plasma nicotine levels,[1],about 10 minutes
same,nicotine in the free base form,[2],about 10%
